Assay results taken from patent US11510943B2, “Chemotherapeutic agent comprising combination of alexidine dihydrochloride and sodium pentaborate pentahydrate” (YEDITEPE UNIVERSITESI, priority 2018, dated 2022).
Entries after “also recorded” stand apart in the source; their conditions may differ. Counter-ions that a name gives are not always drawn.

Columns and labels:
[1] = tested on: pancreatic cancer cell (MIA PaCa-2); test: colorimetric tetrazolium salt (MTS) viability assay, MIA PaCa-2; conditions: Homo sapiens, MIA PaCa-2, 48 h, read-out: viability of MIA PaCa-2 cells
Excerpt: (§1) This value is 10-20% more than the chemotherapeutic effect of alexidine dihydrochloride alone.

[2] = tested on: pancreatic cancer cell (AsPc-1); test: colorimetric tetrazolium salt (MTS) viability assay, AsPc-1
Excerpt: as §1

[3] = tested on: pancreatic cancer cell (Psn-1); test: colorimetric tetrazolium salt (MTS) viability assay, Psn-1
Excerpt: as §1

[4] = tested on: healthy human pancreatic cell (hTert-HPNE); test: colorimetric tetrazolium salt (MTS) viability assay, hTert-HPNE; type: cell-based; conditions: AD alone, 2.5 μM, 48 hours of incubation
[5] = tested on: healthy intervertebral disc cell (HNPC); test: colorimetric tetrazolium salt (MTS) viability assay, HNPC; type: cell-based; conditions: AD alone, 2.5 μM, 48 hours of incubation
[6] = tested on: pancreatic cancer cells (MIA PaCa-2, AsPc-1 and Psn-1); test: colorimetric tetrazolium salt (MTS) viability assay, pancreatic cancer cells together; conditions: Pancreatic cancer cell, 48 h, read-out: viability of the pancreatic cancer cells
Excerpt: as §1

[7] = tested on: healthy cells (hTert-HPNE, HNPC, hFSSCs, HUVEC); test: toxicity analysis (MTS viability assay), healthy cells together; type: cell-based
[8] = solubility in dimethylsulfoxide; type: physicochemical; conditions: organic solvent or mixture
Description: The chemotherapeutic agent of the present invention comprises a combination of alexidine dihydrochloride and sodium pentaborate pentahydrate and induces apoptosis on pancreatic cancer cells. Alexidine dihydrochloride is a compound having a molecular weight of 581.71 gram/mol and the chemical formula of C26H56N10 ·2HCl and it is dissolved in dimethylsulfoxide of 10 mg/ml or above.

[9] = Description: The sodium pentaborate pentahydrate compound was dissolved in the appropriate medium for the cell that was used and filtered to enable sterilization.
[10] = AD alone 2.5 μM, 48-hour incubation, dihydrochloride

Compound	viability at 2.5 µM [1] [%]	viability of AsPc-1 cells [2, 10] [%]	viability at 2.5 µM ([2]; Homo sapiens, ASPC1, 48 h, read-out: viability of AsPc-1 cells, AD alone 2.5 μM, 48-hour incubation) [%]	viability of Psn-1 cells [3, 10] [%]	viability at 2.5 µM ([3]; Homo sapiens, PSN1, 48 h, read-out: viability of Psn-1 cells, AD alone 2.5 μM, 48-hour incubation) [%]	effect on healthy pancreas cell (hTert-HPNE) [4]	effect on healthy intervertebral disc cells (HNPC) [5]	viability at 2.5 µM [6] [%]	effect on healthy cells ([7]; AD alone 2.5 μM, 48-hour incubation, hTert-HPNE and HNPC, dihydrochloride)	solubility [8] [µg/mL]	average vitality ([7]; NAB alone 1000 μM, incubated for 48 hours, hTert-HPNE, HNPC, hFSSCs, HUVEC) [%]	dissolution in the medium ([9]; concentrations used (100-1000 μM), no additional solvent)	precipitate formation in the medium ([9]; medium pH 7.4, 72 hours)
CCCCC(CC)CNC(=N)NC(=N)NCCCCCCNC(=N)NC(=N)NCC(CC)CCCC (stereo not shown) [AD, alexidine dihydrochloride]	53	58.3	58	51.6	45	not affected	not affected	50	did not harm the healthy cells; also recorded: do not kill the healthy cells	≥ 10000			
sodium pentaborate pentahydrate [NAB]											70	dissolved instantly	did not form sodium pentaborate pentahydrate precipitate
